The values that follow come from patent publication US20260374781A1, “NOVEL TRIHETEROCYCLIC COMPOUNDS” (IDENCE CO., LTD., priority 2022, published 2026).

One assay deals with T1, KRAS G12C (Homo sapiens, UniProt P01116, G12C).
T1 construct: GST-tagged KRAS WT or mutant protein (amino acids 2-169)
Kind of assay: KRAS Nucleotide Exchange Assay (SOS1-mediated), G12C. The conditions noted are these: HTRF, 60 minutes preincubation, approximately 25 minutes reaction. It counts as biochemical. The source says: (§1) Test Example 1: KRAS Nucleotide Exchange Assay
(§2) Evaluation of the inhibitory effect of compounds on SOS1-mediated nucleotide exchange activity of KIRAS^WT, KRAS^G12D, KRAS^G12V, KRAS^G12C and KRAS^G13D mutants
(§3) The assay monitors SOS1 mediated exchange of KRAS bound unlabeled GDP to fluorescently labeled GTP. The detection is based on the transfer of energy between two fluorophores when they are in close proximity. Donor is the Tb cryptate labeled anti-GST antibody and acceptor is a DY-647P1 GTP.
(§4) • GST-tagged KRAS WT or mutant protein (amino acids 2-169), • SOS1 (amino acids 564-1049), • Labeled GTP (GTP-DY-647P1), • Assay Buffer (20 mM HEPES pH 7.4, 150 mM NaCl, 5 mM MgCl2, 1 mM DTT, 0.05% BSA, 0.0025% NP40)
(§5) • 1. KRAS protein was diluted with assay buffer to reach 1.5 times of the final concentration, then mixed with Tb cryptate anti-GST antibody and added at 10 μL to each assay well (all of the final concentration was 20 nM for KRAS^WT, KRAS^G12D, and KRAS^G12V) • 2. The compound was dissolved in DMSO and diluted to prepare 100 times of the final concentration. • 3. Compounds were dispensed into assay wells using an ECHO acoustic dispenser (Beckman), mixed gently with the KRAS/Ab mixture, and incubated for 60 minutes. • 4. SOS1 and labeled GTP were mixed, diluted to 3 times of the final concentration with assay buffer, and 5 μL of the solution was added to the assay well to initiate the reaction (final concentration of labeled GTP was […], final concentration of SOS1 was 7.5 nM in WT, 12.5 nM in G12D and 50 nM in G12V). Only assay buffer and labeled GTP were added to the blank well. • 5. The reaction was monitored at Ex/Em=(337/665; 337/620) using a Pherastar Plate Reader (BMG). • 6. HTRF signals were analyzed approximately 25 minutes after the start of the reaction (60 minutes reaction for G12V). • 7. Nucleotide exchange activity is expressed as a percentage difference compared to the DMSO reaction value, and the IC50 value was calculated based on the four-parameter logistic equation in GraphPad 4.0 software.

Another assay has as its target T2, KRAS G13D (Homo sapiens, UniProt P01116, G13D).
T2 construct: GST-tagged KRAS WT or mutant protein (amino acids 2-169)
The assay can be described thus: KRAS Nucleotide Exchange Assay (SOS1-mediated), G13D. The conditions noted are these: HTRF, 60 minutes preincubation, approximately 25 minutes reaction. It counts as biochemical.
Source text: as §1, §2, §3, §4, §5
Background: TR-FRET usually uses a lanthanide donor and a delayed reading to cut background.

For the next assay, the target named is T3, KRAS G12D (Homo sapiens, UniProt P01116, G12D).
T3 construct: GST-tagged KRAS WT or mutant protein (amino acids 2-169)
The assay can be described thus: KRAS Nucleotide Exchange Assay (SOS1-mediated), G12D. It counts as biochemical. The conditions noted are these: HTRF, 20 nM KRAS, 12.5 nM SOS1, 60 minutes preincubation, approximately 25 minutes reaction.
Source text: as §1, §2, §3, §4, §5

For the next assay, the system named is AsPC-1 cells. Kind of assay: Cell Proliferation Assay, AsPC-1 (CellTiter-Glo 2.0 viability). It counts as cell-based. As to conditions: AsPC-1 pancreatic cancer (KRAS G12D mutation). How it is done: (§6) Test Example 3: Cell Proliferation Assay
(§7) Cell viability testing of test compounds in AsPC-1 pancreatic cancer (KRAS G12D mutation) or SW480 colon cancer (KRAS G12V mutation) cells for 72 hours
(§8) The reference compound Staurosporine was purchased from Sigma-Aldrich (Saint Louis, MI), and CellTiter-Glo® 2.0 Luminescent cell viability assay reagent (cat #G9243) was purchased from Promega (Madison, WI). AsPC-1 and SW480 cell lines were purchased from American Type Culture Collection (Manassas, VA). AsPC-1 cells were cultured with RPMI-1640 (ATCC, cat #30-2001) and SW480 cells were cultured with DMEM (ATCC cat #30-2002).
(§9) A medium supplemented with 10% FBS (Sigma-Aldrich, cat #F2442) and 100 µg/mL of penicillin-streptomycin (Sigma-Aldrich, cat #P4333) was used. Cells were cultured at 37 °C in a humidified atmosphere of 5% CO2 and 95% air.
(§10) • 1. The test compound and reference compound, Staurosporine were dissolved in DMSO solution to prepare 20 mM (test compound) and 10 mM (control compound, Staurosporine) in the Source Plate and diluted with DMSO to 3-fold and 10 doses. • 2. From the Source Plate, 10 volumes of 125 nL test compound or 25 nL reference compound were dispensed into wells of a 384-well culture plate (VWR, cat #82050-076) using Echo 655. • 3. 25 μL of culture medium including 2000 AsPC-1 or SW480 cells was dispensed into each 384-well cell culture plate. • 4. Cells were cultured with the compound for 72 hours at 37 °C and 5% CO2 conditions. • 5. 25 μL of CellTiter-Glo 2.0 reagent was added to each well of the plate. • 6. The contents were mixed for 2 minutes on an orbital shaker, and the luminescence signal was stabilized at room temperature for 15 minutes. • 7. Luminescence signals were measured with an Envision 2104 Multilabel Reader (PerkinElmer, Santa Clara, CA), and the number of surviving cells was determined through quantification of ATP present in each culture. • 8. IC50 values were calculated based on the Sigmoidal dose-response equation in the GraphPad Prism 4 program.
For orientation: ATP-based viability assays read luminescence as a measure of living cells.

The target in another assay is T4, KRAS G12V (Homo sapiens, UniProt P01116, G12V).
T4 construct: GST-tagged KRAS WT or mutant protein (amino acids 2-169)
Kind of assay: KRAS Nucleotide Exchange Assay (SOS1-mediated), G12V. The class given is biochemical. As to conditions: HTRF, 20 nM KRAS, 50 nM SOS1, 60 minutes preincubation, 60 minutes reaction.
Source text: as §1, §2, §3, §4, §5

A further assay deals with SW480 cells. The assay can be described thus: Cell Proliferation Assay, SW480 (CellTiter-Glo 2.0 viability). The class given is cell-based. As to conditions: Homo sapiens; SW480 colon cancer (KRAS G12V mutation); 72 hours. How it is done:
as §6, §7, §8, §9, §10

The target of the next assay is T5, KRAS WT (Homo sapiens, UniProt P01116).
T5 construct: GST-tagged KRAS WT or mutant protein (amino acids 2-169)
The assay can be described thus: KRAS Nucleotide Exchange Assay (SOS1-mediated), WT. The class given is biochemical. The conditions noted are these: HTRF, 20 nM KRAS, 7.5 nM SOS1, 60 minutes preincubation, approximately 25 minutes reaction.
Source text: as §1, §2, §3, §4
• 1. […] The reaction was monitored at Ex/Em=(337/665; 337/620) using a Pherastar Plate Reader (BMG). • 6. HTRF signals were analyzed approximately 25 minutes after the start of the reaction (60 minutes reaction for G12V). • 7. Nucleotide exchange activity is expressed as a percentage difference compared to the DMSO reaction value, and the IC50 value was calculated based on the four-parameter logistic equation in GraphPad 4.0 software.

Some results are limits rather than exact numbers.

T1 sequence (P01116 2-169 isoform P01116-2 G12C): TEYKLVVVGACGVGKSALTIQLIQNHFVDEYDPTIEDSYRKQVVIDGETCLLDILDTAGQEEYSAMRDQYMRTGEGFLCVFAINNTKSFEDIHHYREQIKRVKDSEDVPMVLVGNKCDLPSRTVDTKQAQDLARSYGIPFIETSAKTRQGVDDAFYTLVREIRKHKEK
T3 sequence (P01116 2-169 isoform P01116-2 G12D): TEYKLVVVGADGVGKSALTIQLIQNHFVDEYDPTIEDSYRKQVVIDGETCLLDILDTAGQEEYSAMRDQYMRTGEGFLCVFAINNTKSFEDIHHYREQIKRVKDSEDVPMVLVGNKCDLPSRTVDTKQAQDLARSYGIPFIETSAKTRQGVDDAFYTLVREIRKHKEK
T4 sequence (P01116 2-169 isoform P01116-2 G12V): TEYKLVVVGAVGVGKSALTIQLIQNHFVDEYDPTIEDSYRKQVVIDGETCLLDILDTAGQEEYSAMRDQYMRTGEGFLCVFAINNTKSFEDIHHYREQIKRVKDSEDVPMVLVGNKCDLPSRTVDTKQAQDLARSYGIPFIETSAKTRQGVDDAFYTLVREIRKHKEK
T2 sequence (P01116 2-169 isoform P01116-2 G13D): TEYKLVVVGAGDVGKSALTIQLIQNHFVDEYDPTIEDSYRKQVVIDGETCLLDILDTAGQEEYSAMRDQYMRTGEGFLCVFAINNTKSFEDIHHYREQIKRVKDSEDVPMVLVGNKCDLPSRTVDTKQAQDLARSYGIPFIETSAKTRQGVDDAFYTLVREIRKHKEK
T5 sequence (P01116 2-169 isoform P01116-2): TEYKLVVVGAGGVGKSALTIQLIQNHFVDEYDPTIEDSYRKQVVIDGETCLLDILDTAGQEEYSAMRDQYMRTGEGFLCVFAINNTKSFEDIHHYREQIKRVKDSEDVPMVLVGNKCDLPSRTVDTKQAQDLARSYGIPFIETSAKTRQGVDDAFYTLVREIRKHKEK

As usually defined, the IC50 is the concentration needed to halve the response being measured. Regarding `CCc1c(F)ccc2cc(O)cc(-c3nc4c5c(nc(OC[C@@]67CCCN6C[C@H](F)C7)nc5c3F)N(C(C)c3cccnc3N)CCO4)c12` (mixture of isomers) [Example 14, 4-(10-(1-(2-aminopyridin-3-yl)ethyl)-4-fluoro-2-(((2R,7aS)-2-fluorotetrahydro-1H-pyrrolizin-7a(5H)-yl)methoxy)-9,10-dihydro-8H-7-oxa-1,3,6,10-tetraazacyclohepta[de]naphthalen-5-yl)-5-ethyl-6-fluoronaphthalen-2-ol], the concentration for half-maximal inhibition (IC50) on KRAS G12C was 1.78 nM; at KRAS G13D, 8.71 nM; against KRAS G12D, 3.79 nM; with AsPC-1 cells (Homo sapiens, ASPC1, 72 h), less than 1000 nM; against KRAS G12V it was 2.79 nM; with SW480 cells it was less than 1000 nM.
As for `CCc1c(F)ccc2cc(O)cc(-c3nc4c5c(nc(OC[C@@]67CCCN6C[C@H](F)C7)nc5c3F)N(CC3(N(C)C)CCC3)CCO4)c12` [Example 1, 4-(10-((1-(dimethylamino)cyclobutyl)methyl)-4-fluoro-2-(((2R,7aS)-2-fluorotetrahydro-1H-pyrrolizin-7a(5H)-yl)methoxy)-9,10-dihydro-8H-7-oxa-1,3,6,10-tetraazacyclohepta[de]naphthalen-5-yl)-5-ethyl-6-fluoronaphthalen-2-ol], the IC50 on KRAS WT is 6.22 nM; at KRAS G12D, 1.26 nM; in the assay with AsPC-1 cells (Homo sapiens, ASPC1, 72 h), greater than 10000 nM; against KRAS G12V, 33.4 nM.
`C#Cc1c(F)ccc2cc(O)cc(-c3nc4c5c(nc(OC[C@@]67CCCN6C[C@H](F)C7)nc5c3F)N(CC3(N(C)C)CCC3)CCO4)c12` [Example 2, 4-(10-((1-(dimethylamino)cyclobutyl)methyl)-4-fluoro-2-(((2R,7aS)-2-fluorotetrahydro-1H-pyrrolizin-7a(5H)-yl)methoxy)-9,10-dihydro-8H-7-oxa-1,3,6,10-tetraazacyclohepta[de]naphthalen-5-yl)-5-ethynyl-6-fluoronaphthalen-2-ol]: the half-inhibitory concentration (IC50) is 1.34 nM at KRAS G12D and 1000 to 10000 nM with AsPC-1 cells (Homo sapiens, ASPC1, 72 h).
Turning to `C#Cc1c(F)ccc2cc(O)cc(-c3nc4c5c(nc(OC[C@@]67CCCN6C[C@H](F)C7)nc5c3F)N(C(C)c3cccnc3N)CCO4)c12` (stereo partly drawn) [Example 13, 4-(10-(1-(2-aminopyridin-3-yl)ethyl)-4-fluoro-2-(((2R,7aS)-2-fluorotetrahydro-1H-pyrrolizin-7a(5H)-yl)methoxy)-9,10-dihydro-8H-7-oxa-1,3,6,10-tetraazacyclohepta[de]naphthalen-5-yl)-5-ethynyl-6-fluoronaphthalen-2-ol], the IC50 was 0.609 nM at KRAS G12C; 3.69 nM on KRAS G13D; 1.65 nM against KRAS G12D; less than 1000 nM with AsPC-1 cells (72 hours); 1.38 nM against KRAS G12V; less than 1000 nM in the assay with SW480 cells.
Consider `C[C@H](c1cccnc1N)N1C[C@H](C)Oc2nc(-c3cc(O)cc4ccc(F)c(F)c34)c(F)c3nc(OC[C@@]45CCCN4C[C@H](F)C5)nc1c23` (stereo in doubt) [Example 10a, 4-((S)-10-((R)-1-(2-aminopyridin-3-yl)ethyl)-4-fluoro-2-(((2R,7aS)-2-fluorotetrahydro-1H-pyrrolizin-7a(5H)-yl)methoxy)-8-methyl-9,10-dihydro-8H-7-oxa-1,3,6,10-tetraazacyclohepta[de]naphthalen-5-yl)-5,6-difluoronaphthalen-2-ol], for which the IC50 against KRAS G12C was 0.608 nM; at KRAS G13D, 6.97 nM; against KRAS G12D, 3.67 nM; in the assay on AsPC-1 cells (Homo sapiens, ASPC1, 72 h), greater than 10000 nM; at KRAS G12V, 1.59 nM.
Regarding `CCc1c(F)ccc2cc(O)cc(-c3nc4c5c(nc(OC[C@@]67CCCN6C[C@H](F)C7)nc5c3F)N([C@@H](C)c3cccnc3N)C[C@H](C)O4)c12` [Example 3b, 4-((S)-10-((S)-1-(2-aminopyridin-3-yl)ethyl)-4-fluoro-2-(((2R,7aS)-2-fluorotetrahydro-1H-pyrrolizin-7a(5H)-yl)methoxy)-8-methyl-9,10-dihydro-8H-7-oxa-1,3,6,10-tetraazacyclohepta[de]naphthalen-5-yl)-5-ethyl-6-fluoronaphthalen-2-ol], the 50% inhibitory concentration (IC50) at KRAS G12D was found to be 176 nM; against KRAS G12V, 62.1 nM.
Consider `CC(c1cccnc1N)N1CCOc2nc(-c3cc(O)cc4ccc(F)c(F)c34)c(F)c3nc(OC[C@@]45CCCN4C[C@H](F)C5)nc1c23` (stereo partly drawn) [Example 16, 4-(10-(1-(2-aminopyridin-3-yl)ethyl)-4-fluoro-2-(((2R,7aS)-2-fluorotetrahydro-1H-pyrrolizin-7a(5H)-yl)methoxy)-9,10-dihydro-8H-7-oxa-1,3,6,10-tetraazacyclohepta[de]naphthalen-5-yl)-5,6-difluoronaphthalen-2-ol], for which the IC50 is 0.916 nM at KRAS G12C; 4.94 nM against KRAS G13D; 2.35 nM at KRAS G12D; less than 1000 nM in the assay with AsPC-1 cells (Homo sapiens, ASPC1, 72 h); 2.3 nM against KRAS G12V; less than 1000 nM in the assay on SW480 cells.
As for `CCc1c(F)ccc2cc(O)cc(-c3nc4c5c(nc(OC[C@@]67CCCN6C[C@H](F)C7)nc5c3F)N([C@H](C)c3cccnc3N)C[C@H](C)O4)c12` [Example 3a, 4-((S)-10-((R)-1-(2-aminopyridin-3-yl)ethyl)-4-fluoro-2-(((2R,7aS)-2-fluorotetrahydro-1H-pyrrolizin-7a(5H)-yl)methoxy)-8-methyl-9,10-dihydro-8H-7-oxa-1,3,6,10-tetraazacyclohepta[de]naphthalen-5-yl)-5-ethyl-6-fluoronaphthalen-2-ol], the half-inhibitory concentration (IC50) against KRAS G12D is 5.76 nM; in the assay on AsPC-1 cells (Homo sapiens, ASPC1, 72 h) it was greater than 10000 nM; at KRAS G12V it was 2.19 nM.
The corresponding values for `CCc1c(F)ccc2cc(O)cc(-c3nc4c5c(nc(OC[C@@]67CCCN6C[C@H](F)C7)nc5c3F)N(C(C)c3cccnc3N)C[C@H](C)O4)c12` (stereo partly drawn) [Example 3, 4-((8S)-10-(1-(2-aminopyridin-3-yl)ethyl)-4-fluoro-2-(((2R,7aS)-2-fluorotetrahydro-1H-pyrrolizin-7a(5H)-yl)methoxy)-8-methyl-9,10-dihydro-8H-7-oxa-1,3,6,10-tetraazacyclohepta[de]naphthalen-5-yl)-5-ethyl-6-fluoronaphthalen-2-ol] are 8.69 nM, greater than 10000 nM and 3.25 nM.
